Laboratory results published in the supplement of paper PMC10307832.

Key:
Assay in all cases: relative viability (nuclei count vs DMSO), 5 days (fraction); higher = more cells survive
CUDC-101 + AZD7762 = compound: C#Cc1cccc(Nc2ncnc3cc(OC)c(OCCCCCCC(=O)NO)cc23)c1 [CUDC-101] + NC(=O)Nc1cc(-c2cccc(F)c2)sc1C(=O)N[C@H]1CCCNC1 [AZD7762] (partner 0.2 µM)
Procedure, shortened: (§1)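 Nuclei were stained with Hoechst during a one-step fixation (final 0.05% Triton X-100, 1% formaldehyde, 1 ug/ml Hoechst) carried out 5 days after dosing, then counted on 4× images. The cells, lung cancer lines in 1536-well plates, had been dosed by pin tool the day after seeding with one drug alone or a fixed anchor-drug dose plus five library-drug doses (not always all listed) in √10 steps. Relative viability is the nuclei count in treated wells divided by that in vehicle wells, and each value is the median of duplicate plates.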

NVP-TAE684 + Decitabine = compound: COc1cc(N2CCC(N3CCN(C)CC3)CC2)ccc1Nc1ncc(Cl)c(Nc2ccccc2S(=O)(=O)C(C)C)n1 [NVP-TAE684] + Nc1ncn([C@H]2C[C@H](O)[C@@H](CO)O2)c(=O)n1 [Decitabine] (partner 2 µM)
Procedure, shortened: as §1

[1] = compound: C1=CC=C2C(=C1)N=C(S2)C(C#N)C3=NC(=NC=C3)NCCC4=CN=CC=C4 + CC(C)C[C@H](NC(=O)[C@H](Cc1ccccc1)NC(=O)c1cnccn1)B(O)O [Bortezomib] (partner 0.002 µM)
Procedure, shortened: as §1

Vandetanib + Pemetrexed = compound: COc1cc2/c(=N/c3ccc(Br)cc3F)nc[nH]c2cc1OCC1CCN(C)CC1 [Vandetanib] + Nc1nc2[nH]cc(CCc3ccc(C(=O)N[C@@H](CCC(=O)O)C(=O)O)cc3)c2c(=O)[nH]1 [Pemetrexed] (partner 0.2 µM)
Procedure, shortened: as §1

Cell Line	relative viability (CUDC-101 + AZD7762; first compound 0.01 µM)	relative viability (CUDC-101 + AZD7762; first compound 0.03162 µM)	relative viability (CUDC-101 + AZD7762; first compound 0.1 µM)	relative viability (CUDC-101 + AZD7762; first compound 0.3162 µM)	relative viability (CUDC-101 + AZD7762; first compound 1 µM)	relative viability (NVP-TAE684 + Decitabine; first compound 0.2 µM)	relative viability (NVP-TAE684 + Decitabine; first compound 0.6325 µM)	relative viability (NVP-TAE684 + Decitabine; first compound 2 µM)	relative viability ([1]; first compound 0.005 µM)	relative viability ([1]; first compound 0.01581 µM)	relative viability ([1]; first compound 0.05 µM)	relative viability ([1]; first compound 0.1581 µM)	relative viability ([1]; first compound 0.5 µM)	relative viability (Vandetanib + Pemetrexed; first compound 0.02 µM)	relative viability (Vandetanib + Pemetrexed; first compound 0.06325 µM)	relative viability (Vandetanib + Pemetrexed; first compound 0.2 µM)	relative viability (Vandetanib + Pemetrexed; first compound 0.6325 µM)	relative viability (Vandetanib + Pemetrexed; first compound 2 µM)
PC-14	0.428	0.339	0.214	0.185	0.124	0.217	0.191	0.0633	0.665	1.12	0.9	0.965	0.679	0.133	0.115	0.123	0.179	0.165
EKVX	0.84	0.68	0.656	0.771	0.563	0.317	0.354	0.325	0.94	1.13	1.1	1.31	0.996	0.385	0.373	0.459	0.349	0.363
NCI-H322M	0.558	0.428	0.496	0.345	0.353	0.658	0.619	0.526	0.947	1.31	1.21	1.32	1.23	0.579	0.615	0.641	0.604	0.51
NCI-H1355	0.657	0.645	0.846	0.747	0.598	0.372	0.383	0.31	1.1	1.1	1.22	1.27	1.1	1.03	0.994	1.05	0.985	1.06
ChaGo-K-1	0.92	0.913	0.937	0.841	0.732	0.536	0.52	0.427	0.87		0.936	1.1	0.845	0.257	0.271	0.259	0.255	0.263
NCI-H2126	1.01	0.98	0.939	0.945	0.943	0.56	0.603	0.459	1.07	1.15	1.06	1.16	1.11	0.658	0.632	0.715	0.669	0.651
NCI-H1755	0.387	0.396	0.463	0.43	0.317	0.715	0.756	0.667	0.943	1.07	0.996	1.13	0.884	0.396	0.53	0.464	0.482	0.451
NCI-H2347	0.934	0.653	0.697	0.791	0.569	0.602	0.679	0.571	1.12	1.07		1.13	0.962	0.433	0.393	0.443	0.443	0.427
HCC-15	1.3	1.08	1.2	1.15	1.18	0.582	0.524	0.484	0.835	1.02	1.15	1.13	0.835	0.229	0.226	0.235	0.238	0.225
